# Tested on: IRF3 activation in THP-1 Dual Cells
# Test: IRF3 activation assay in THP-1 Dual Cells (QUANTI-Blue readout)
# Type: cell-based
# Conditions: Homo sapiens, THP1-Dual, 24 h, Table 2, 24 hours incubation
# Description: THP-1 Dual Cells (Invivogen) were maintained in RPMI1640 medium with addition of 10% FBS, 100 μg/ml zeocin, 10 μg/ml blasticidin. Cells were added in a 96-well flat bottom assay plate at 100,000 per well in 100 μL complete RPMI medium. Test compounds were prepared by serial dilution in complete RPMI medium and 100 μL test compounds were transferred to each corresponding well. The assay plate was incubated at 37° C., 5% CO2 for 24 hours. After the overnight incubation, 20 μL of the culture supernatants were collected, followed by addition of 180 μL of QUANTI-Blue (Invivogen) to assess IRF3 activity. The amount of IRF3 activation was assessed by reading the absorbance at 620-655 nm with a microplate reader 2 hours later. The culture supernatant from the untreated THP-1 cells was used as the negative control. To determine the NF-κB activation, another 20 μL of culture supernatant were transferred to a 96-well white plate, followed by addition of 50 μL of Quanti-Luc™ assay solution (Invivogen). The amount of NF-κB activation induced by the test compounds were determined by the luminescence above the untreated control. EC50 determination was performed by fitting the curve of percent control activity versus the log of the compound concentration using the GraphPad Prism 6.0 software.
row,EC50 [µM],Compound
1,0.05 to 0.2,"CCn1nc(C)cc1C(=O)Nc1nc2cc(C(N)=O)cc(OCCCN3CCN(C)CC3)c2n1C/C=C/Cn1c2nc(-c3cc(C)nn3CC)ncc2c2cc(C(N)=O)cc(OCCCOC)c21 [Example 31, (E)-9-(4-(5-carbamoyl-2-(1-ethyl-3-methyl-1H-pyrazole-5-carboxamido)-7-(3-(4-methylpiperazin-1-yl)propoxy)-1H-benzo[d]imidazol-1-yl)but-2-en-1-yl)-2-(1-ethyl-3-methyl-1H-pyrazol-5-yl)-8-(3-methoxypropoxy)-9H-pyrimido[4,5-b]indole-6-carboxamide]"
2,< 0.05,"CCn1nc(C)cc1C(=O)Nc1nc2cc(C(N)=O)cc(OCCCO)c2n1C/C=C/Cn1c2ccc(C(N)=O)cc2c2cc(F)c(-c3cc(C)nn3CC)nc21 [Example 32, (E)-9-(4-(5-carbamoyl-2-(1-ethyl-3-methyl-1H-pyrazole-5-carboxamido)-7-(3-hydroxypropoxy)-1H-benzo[d]imidazol-1-yl)but-2-en-1-yl)-2-(1-ethyl-3-methyl-1H-pyrazol-5-yl)-3-fluoro-9H-pyrido[2,3-b]indole-6-carboxamide]"
3,0.5 to 1,"CCn1nc(C)cc1C(=O)Nc1nc2cc(C(N)=O)cc(OCCCN)c2n1C/C=C/Cn1c2nc(-c3cc(C)nn3CC)ncc2c2cc(C(N)=O)cc(OCCCOC)c21 [Example 33, (E)-9-(4-(7-(3-aminopropoxy)-5-carbamoyl-2-(1-ethyl-3-methyl-1H-pyrazole-5-carboxamido)-1H-benzo[d]imidazol-1-yl)but-2-en-1-yl)-2-(1-ethyl-3-methyl-1H-pyrazol-5-yl)-8-(3-methoxypropoxy)-9H-pyrimido[4,5-b]indole-6-carboxamide]"
4,< 0.05,"CCn1nc(C)cc1C(=O)Nc1nc2cc(C(N)=O)cc(OCCO)c2n1C/C=C/Cn1c2nc(-c3cc(C)nn3CC)ncc2c2cc(C(N)=O)cc(OCCCOC)c21 [Example 36, (E)-9-(4-(5-carbamoyl-2-(1-ethyl-3-methyl-1H-pyrazole-5-carboxamido)-7-(2-hydroxyethoxy)-1H-benzo[d]imidazol-1-yl)but-2-en-1-yl)-2-(1-ethyl-3-methyl-1H-pyrazol-5-yl)-8-(3-methoxypropoxy)-9H-pyrimido[4,5-b]indole-6-carboxamide]"
5,0.2 to 0.5,"CCn1nc(C)cc1C(=O)Nc1nc2cc(C(N)=O)cc(OCCCNC(=O)[C@H](CC(=O)O)NC(=O)[C@H](CC(=O)O)NC(=O)[C@H](CCCNC(=N)N)NC(=O)[C@@H](N)CC(=O)O)c2n1C/C=C/Cn1c2nc(-c3cc(C)nn3CC)ncc2c2cc(C(N)=O)cc(OCCCOC)c21 [Example 37, (6S,9S,12S,15S)-15-amino-1-((5-carbamoyl-1-((E)-4-(6-carbamoyl-2-(1-ethyl-3-methyl-1H-pyrazol-5-yl)-8-(3-methoxypropoxy)-9H-pyrimido[4,5-b]indol-9-yl)but-2-en-1-yl)-2-(1-ethyl-3-methyl-1H-pyrazole-5-carboxamido)-1H-benzo[d]imidazol-7-yl)oxy)-6,9-bis(carboxymethyl)-12-(3-guanidinopropyl)-5,8,11,14-tetraoxo-4,7,10,13-tetraazaheptadecan-17-oic Acid]"
6,0.05 to 0.2,"CCn1nc(C)cc1C(=O)Nc1nc2cc(C(N)=O)cc(OCCN3CCOCC3)c2n1C/C=C/Cn1c2nc(-c3cc(C)nn3CC)ncc2c2cc(C(N)=O)cc(OCCCOC)c21 [Example 38, (E)-9-(4-(5-carbamoyl-2-(1-ethyl-3-methyl-1H-pyrazole-5-carboxamido)-7-(2-morpholinoethoxy)-1H-benzo[d]imidazol-1-yl)but-2-en-1-yl)-2-(1-ethyl-3-methyl-1H-pyrazol-5-yl)-8-(3-methoxypropoxy)-9H-pyrimido[4,5-b]indole-6-carboxamide]"
7,< 0.05,"CCn1nc(C)cc1C(=O)Nc1nc2cc(C(N)=O)cc(OCCCNC(=O)OCCC(=O)O)c2n1C/C=C/Cn1c2nc(-c3cc(C)nn3CC)ncc2c2cc(C(N)=O)cc(OCCCOC)c21 [Example 39, (E)-3-(((3-((5-carbamoyl-1-(4-(6-carbamoyl-2-(1-ethyl-3-methyl-1H-pyrazol-5-yl)-8-(3-methoxypropoxy)-9H-pyrimido[4,5-b]indol-9-yl)but-2-en-1-yl)-2-(1-ethyl-3-methyl-1H-pyrazole-5-carboxamido)-1H-benzo[d]imidazol-7-yl)oxy)propyl)carbamoyl)oxy)propanoic Acid]"
8,< 0.05,"CCn1nc(C)cc1C(=O)Nc1nc2cc(C(N)=O)cc(OCCCNC(=O)OCC(=O)O)c2n1C/C=C/Cn1c2nc(-c3cc(C)nn3CC)ncc2c2cc(C(N)=O)cc(OCCCOC)c21 [Example 40, (E)-2-(((3-((5-carbamoyl-1-(4-(6-carbamoyl-2-(1-ethyl-3-methyl-1H-pyrazol-5-yl)-8-(3-methoxypropoxy)-9H-pyrimido[4,5-b]indol-9-yl)but-2-en-1-yl)-2-(1-ethyl-3-methyl-1H-pyrazole-5-carboxamido)-1H-benzo[d]imidazol-7-yl)oxy)propyl)carbamoyl)oxy)acetic Acid]"
9,< 0.05,"CCn1nc(C)cc1C(=O)Nc1nc2cc(C(N)=O)cc(OCCCNC(=O)NCC(=O)O)c2n1C/C=C/Cn1c2nc(-c3cc(C)nn3CC)ncc2c2cc(C(N)=O)cc(OCCCOC)c21 [Example 41, (E)-((3-((5-carbamoyl-1-(4-(6-carbamoyl-2-(1-ethyl-3-methyl-1H-pyrazol-5-yl)-8-(3-methoxypropoxy)-9H-pyrimido[4,5-b]indol-9-yl)but-2-en-1-yl)-2-(1-ethyl-3-methyl-1H-pyrazole-5-carboxamido)-1H-benzo[d]imidazol-7-yl)oxy)propyl)carbamoyl)glycine]"
10,0.05 to 0.2,"CCn1nc(C)cc1C(=O)Nc1nc2cc(C(N)=O)cc(OCCCNC(=O)[C@@H](N)CC(=O)O)c2n1C/C=C/Cn1c2nc(-c3cc(C)nn3CC)ncc2c2cc(C(N)=O)cc(OCCCOC)c21 [Example 42, (S,E)-3-amino-4-((3-((5-carbamoyl-1-(4-(6-carbamoyl-2-(1-ethyl-3-methyl-1H-pyrazol-5-yl)-8-(3-methoxypropoxy)-9H-pyrimido[4,5-b]indol-9-yl)but-2-en-1-yl)-2-(1-ethyl-3-methyl-1H-pyrazole-5-carboxamido)-1H-benzo[d]imidazol-7-yl)oxy)propyl)amino)-4-oxobutanoic Acid]"
11,< 0.05,"CCn1nc(C)cc1C(=O)Nc1nc2cc(C(N)=O)cc(OCCCOC(=O)NCCC(=O)O)c2n1C/C=C/Cn1c2nc(-c3cc(C)nn3CC)ncc2c2cc(C(N)=O)cc(OCCCOC)c21 [Example 43, (E)-3-(((3-((5-carbamoyl-1-(4-(6-carbamoyl-2-(1-ethyl-3-methyl-1H-pyrazol-5-yl)-8-(3-methoxypropoxy)-9H-pyrimido[4,5-b]indol-9-yl)but-2-en-1-yl)-2-(1-ethyl-3-methyl-1H-pyrazole-5-carboxamido)-1H-benzo[d]imidazol-7-yl)oxy)propoxy)carbonyl)amino)propanoic Acid]"
12,< 0.05,"CCn1nc(C)cc1C(=O)Nc1nc2cc(C(N)=O)cc(OCCOCCOCCC(=O)O)c2n1C/C=C/Cn1c2nc(-c3cc(C)nn3CC)ncc2c2cc(C(N)=O)cc(OCCCOC)c21 [Example 44, (E)-3-(2-(2-((5-carbamoyl-1-(4-(6-carbamoyl-2-(1-ethyl-3-methyl-1H-pyrazol-5-yl)-8-(3-methoxypropoxy)-9H-pyrimido[4,5-b]indol-9-yl)but-2-en-1-yl)-2-(1-ethyl-3-methyl-1H-pyrazole-5-carboxamido)-1H-benzo[d]imidazol-7-yl)oxy)ethoxy)ethoxy)propanoic Acid]"
13,< 0.05,"CCn1nc(C)cc1C(=O)Nc1nc2cc(C(N)=O)cc(OCCCNS(=O)(=O)CCCC(=O)O)c2n1C/C=C/Cn1c2nc(-c3cc(C)nn3CC)ncc2c2cc(C(N)=O)cc(OCCCOC)c21 [Example 45, (E)-4-(N-(3-((5-carbamoyl-1-(4-(6-carbamoyl-2-(1-ethyl-3-methyl-1H-pyrazol-5-yl)-8-(3-methoxypropoxy)-9H-pyrimido[4,5-b]indol-9-yl)but-2-en-1-yl)-2-(1-ethyl-3-methyl-1H-pyrazole-5-carboxamido)-1H-benzo[d]imidazol-7-yl)oxy)propyl)sulfamoyl)butanoic Acid]"
14,< 0.05,"CCn1nc(C)cc1C(=O)Nc1nc2cc(C(N)=O)cc(OC)c2n1C/C=C/Cn1c2nc(-c3cc(C)nn3CC)ncc2c2cc(C(N)=O)cc(OCCCNC(=O)CCCC(=O)O)c21 [Example 46, (E)-5-(3-(6-carbamoyl-9-(4-(5-carbamoyl-2-(1-ethyl-3-methyl-1H-pyrazole-5-carboxamido)-7-methoxy-1H-benzo[d]imidazol-1-yl)but-2-enyl)-2-(1-ethyl-3-methyl-1H-pyrazol-5-yl)-9H-pyrimido[4,5-b]indol-8-yloxy)propylamino)-5-oxopentanoic Acid]"
15,< 0.05,"CCn1nc(C)cc1C(=O)Nc1nc2cc(C(N)=O)cc(OC)c2n1C/C=C/Cn1c2nc(-c3cc(C)nn3CC)ncc2c2cc(C(N)=O)cc(OCCCNC(=O)OCCC(=O)O)c21 [Example 47, (E)-3-(3-(6-carbamoyl-9-(4-(5-carbamoyl-2-(1-ethyl-3-methyl-1H-pyrazole-5-carboxamido)-7-methoxy-1H-benzo[d]imidazol-1-yl)but-2-enyl)-2-(1-ethyl-3-methyl-1H-pyrazol-5-yl)-9H-pyrimido[4,5-b]indol-8-yloxy)propylcarbamoyloxy)propanoic Acid]"

# — US10947227B2, “Tricyclic heterocyclic compounds as sting activators” (Incyte Corporation, priority 2018, dated 2021)
